# Laboratory results: US20250250299A1, “MACROCYCLIC IMMUNOMODULATORS” (Bristol-Myers Squibb Company, priority 2022, published 2025)
# Where a SMILES comes first, the peptide text is derived from it. Bridges are numbered along the chain shown (N, C = ends). [ ]: non-standard residue; d: D form. The star is where a group is joined. X1 = O=C(O)CCCCCCCCCCCCCCCCC(=O)N[C@@H](CCC(=O)NCCOCCOCCOCCOCCOCCOCCOCCOCCOCCOCCOCCn1cc(C*)nn1)C(=O)O; Phe(4-COOH) = N[C@@H](Cc1ccc(C(=O)O)cc1)C(=O)O; Bip = N[C@@H](Cc1ccc(-c2ccccc2)cc1)C(=O)O; Phe(3-Me) = Cc1cccc(C[C@H](N)C(=O)O)c1; C12 diacid = O=C(O)CCCCCCCCCCC(=O)*; Cha = N[C@@H](CC1CCCCC1)C(=O)O; Carboxymethyl = O=C(O)C*; Orn = NCCC[C@H](N)C(=O)O; Dab = NCC[C@H](N)C(=O)O; Nva = CCC[C@H](N)C(=O)O; Abu = CC[C@H](N)C(=O)O; Dap = NC[C@H](N)C(=O)O; AEEA = NCCOCCOCC(=O)O
# Biological target: T1, human PD-1 (Jurkat-PD-1 cells; binding of PE-labeled human PD-L1-Ig) (Homo sapiens, UniProt Q15116)
# T1 construct: expressed in transfected cells; host or cells: Jurkat (Jurkat-PD-1 / Jurkat-hPD-1)
# T1 sequence (Q15116 25-288): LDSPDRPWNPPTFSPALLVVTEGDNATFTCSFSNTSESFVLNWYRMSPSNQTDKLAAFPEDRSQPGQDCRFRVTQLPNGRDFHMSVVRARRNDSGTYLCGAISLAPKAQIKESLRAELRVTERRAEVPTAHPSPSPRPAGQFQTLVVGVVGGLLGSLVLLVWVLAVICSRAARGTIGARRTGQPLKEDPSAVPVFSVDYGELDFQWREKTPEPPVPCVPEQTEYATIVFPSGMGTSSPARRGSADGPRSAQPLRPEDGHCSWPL
# Assay: Jurkat-PD-1 Cell Binding High-Content Screening Assay
# Settings: Jurkat cell line over-expressing human PD-1; compound 2 h at 37° C., then PE-labeled PD-L1-Ig 20 nM final, 1 hour; read-out: Jurkat hPD1 PDL1 IC50
# Protocol: The ability of the compounds of formula (I) to bind to PD-1 was investigated using a Jurkat-PD-1 Cell Binding High-Content Screening Assay.
# Phycoerythrin (PE) was covalently linked to the Ig epitope tag of human PD-L1-Ig and fluorescently-labeled PD-L1-Ig was used for binding studies with a Jurkat cell line over-expressing human PD-1 (Jurkat-PD-1). Briefly, 8×10^3 Jurkat-hPD-1 cells were seeded into 384 well plates in 20 μl of DIVEM supplemented with 10% fetal calf serum. 100 nl of compound was added to cells followed by incubation at 37° C. for 2 h. Then, 5 μl of PE-labeled PD-L1-Ig (20 nM final), diluted in DiVEM supplemented with 10 fetal calf serum. After 1 hour incubation, cells were fixed with […] in dPBS containing 10 µg/mL Hoechst 33342 and then washed 3× in 100 μl dPB S. Data was collected and processed using a Cell Insight NXT High Content Imager and associated software.
row,SMILES,IC50 [nM]
1,Cc1cccc(C[C@@H]2NC(=O)[C@H](CC(=O)O)NC(=O)[C@H](Cc3ccc(OCC(=O)O)cc3)NC(=O)[C@H](CN)NC(=O)CSC[C@@H](C(=O)N[C@@H](CCN)C(=O)NCCOCCOCC(N)=O)NC(=O)[C@H]([C@@H](C)O)NC(=O)[C@H](C(C)C)NC(=O)[C@H](CC3CCCCC3)NC(=O)[C@H](CCN)NC(=O)[C@@H](CC(C)C)NC(=O)[C@H](CCCN)NC(=O)[C@H](COCc3cn(CCOCCOCCOCCOCCOCCOCCOCCOCCOCCOCCOCCNC(=O)CC[C@H](NC(=O)CCCCCCCCCCCCCCCCC(=O)O)C(=O)O)nn3)NC(=O)[C@H](Cc3ccc(-c4ccccc4)cc3)NC(=O)[C@H](Cc3ccc(OCC(=O)O)cc3)NC2=O)c1 [Compound 1042] ({CH2CO}-[Dap]Y(Carboxymethyl)D[Phe(3-Me)]Y(Carboxymethyl)[Bip]S(X1)[Orn][dL][Dab][Cha]VTC[Dab][AEEA]-NH2; thioether N-14),220
2,Cc1cccc(C[C@@H]2NC(=O)[C@H](CC(=O)O)NC(=O)[C@H](Cc3ccc(OCC(=O)O)cc3)NC(=O)[C@H](Cc3ccc(OCc4cn(CCOCCOCCOCCOCCOCCOCCOCCOCCOCCOCCOCCNC(=O)CC[C@H](NC(=O)CCCCCCCCCCCCCCCCC(=O)O)C(=O)O)nn4)cc3)NC(=O)CSC[C@@H](C(=O)N[C@@H](CCN)C(N)=O)NC(=O)[C@H](CCC(=O)O)NC(=O)[C@H](C(C)C)NC(=O)[C@H](CC3CCCCC3)NC(=O)[C@H](CCN)NC(=O)[C@@H](CC(C)C)NC(=O)[C@H](CCCN)NC(=O)[C@H](Cc3ccc(OCC(=O)O)cc3)NC(=O)[C@H](Cc3ccc(-c4ccccc4)cc3)NC(=O)[C@H](Cc3ccc(OCC(=O)O)cc3)NC2=O)c1 [Compound 1011] ({CH2CO}-Y(X1)Y(Carboxymethyl)D[Phe(3-Me)]Y(Carboxymethyl)[Bip]Y(Carboxymethyl)[Orn][dL][Dab][Cha]VEC[Dab]-NH2; thioether N-14),340
3,Cc1cccc(C[C@@H]2NC(=O)[C@H](CC(=O)O)NC(=O)[C@H](Cc3ccc(OCC(=O)O)cc3)NC(=O)[C@H](CCNC(=O)CCCCCCCCCCC(=O)O)NC(=O)CSC[C@@H](C(N)=O)NC(=O)[C@H]([C@@H](C)O)NC(=O)[C@H](C(C)C)NC(=O)[C@H](CC3CCCCC3)NC(=O)[C@H](CCN)NC(=O)[C@@H](CC(C)C)NC(=O)[C@H](CCCN)NC(=O)[C@H](Cc3ccc(OCC(=O)O)cc3)NC(=O)[C@H](Cc3ccc(-c4ccccc4)cc3)NC(=O)[C@H](Cc3ccc(O)cc3)NC2=O)c1 [Compound 1034] ({CH2CO}-[Dab](C12 diacid)Y(Carboxymethyl)D[Phe(3-Me)]Y[Bip]Y(Carboxymethyl)[Orn][dL][Dab][Cha]VTC-NH2; thioether N-14),170
4,CCC[C@@H]1NC(=O)CSC[C@@H](C(=O)N[C@@H](CCN)C(N)=O)NC(=O)[C@H](CCC(=O)O)NC(=O)[C@H](C(C)C)NC(=O)[C@H](CC2CCCCC2)NC(=O)[C@H](CCN)NC(=O)[C@@H](CC(C)C)NC(=O)[C@H](CCCN)NC(=O)[C@H](Cc2ccc(C(=O)O)cc2)NC(=O)[C@H](Cc2ccc(-c3ccccc3)cc2)NC(=O)[C@H](Cc2ccc(OCc3cn(CCOCCOCCOCCOCCOCCOCCOCCOCCOCCOCCOCCNC(=O)CC[C@H](NC(=O)CCCCCCCCCCCCCCCCC(=O)O)C(=O)O)nn3)cc2)NC(=O)[C@H](Cc2cccc(C)c2)NC(=O)[C@H](CC(=O)O)NC(=O)[C@H](Cc2ccc(C(=O)O)cc2)NC1=O [Compound 1022] ({CH2CO}-[Nva][Phe(4-COOH)]D[Phe(3-Me)]Y(X1)[Bip][Phe(4-COOH)][Orn][dL][Dab][Cha]VEC[Dab]-NH2; thioether N-14),54
5,Cc1cccc(C[C@@H]2NC(=O)[C@H](CC(=O)O)NC(=O)[C@H](Cc3ccc(OCC(=O)O)cc3)NC(=O)[C@H](CN)NC(=O)CSC[C@@H](C(=O)N[C@@H](CCN)C(N)=O)NC(=O)[C@H](Cc3ccc(OCc4cn(CCOCCOCCOCCOCCOCCOCCOCCOCCOCCOCCOCCNC(=O)CC[C@H](NC(=O)CCCCCCCCCCCCCCCCC(=O)O)C(=O)O)nn4)cc3)NC(=O)[C@H](C(C)C)NC(=O)[C@H](CC3CCCCC3)NC(=O)[C@H](CCN)NC(=O)[C@@H](CC(C)C)NC(=O)[C@H](CCCN)NC(=O)[C@H](Cc3ccc(OCC(=O)O)cc3)NC(=O)[C@H](Cc3ccc(-c4ccccc4)cc3)NC(=O)[C@H](Cc3ccc(OCC(=O)O)cc3)NC2=O)c1 [Compound 1013] ({CH2CO}-[Dap]Y(Carboxymethyl)D[Phe(3-Me)]Y(Carboxymethyl)[Bip]Y(Carboxymethyl)[Orn][dL][Dab][Cha]VY(X1)C[Dab]-NH2; thioether N-14),240
6,CCC[C@@H]1NC(=O)CSC[C@@H](C(=O)N[C@@H](CCN)C(N)=O)NC(=O)[C@H](CCC(=O)O)NC(=O)[C@H](C(C)C)NC(=O)[C@H](CC2CCCCC2)NC(=O)[C@H](CCN)NC(=O)[C@@H](CC(C)C)NC(=O)[C@H](CCCN)NC(=O)[C@H](Cc2ccc(OCC(=O)O)cc2)NC(=O)[C@H](Cc2ccc(-c3ccccc3)cc2)NC(=O)[C@H](Cc2ccc(OCc3cn(CCOCCOCCOCCOCCOCCOCCOCCOCCOCCOCCOCCNC(=O)CC[C@H](NC(=O)CCCCCCCCCCCCCCCCC(=O)O)C(=O)O)nn3)cc2)NC(=O)[C@H](Cc2cccc(C)c2)NC(=O)[C@H](CC(=O)O)NC(=O)[C@H](Cc2ccc(OCC(=O)O)cc2)NC1=O [Compound 1018] ({CH2CO}-[Nva]Y(Carboxymethyl)D[Phe(3-Me)]Y(X1)[Bip]Y(Carboxymethyl)[Orn][dL][Dab][Cha]VEC[Dab]-NH2; thioether N-14),110
7,Cc1cccc(C[C@@H]2NC(=O)[C@H](CC(=O)O)NC(=O)[C@H](Cc3ccc(OCC(=O)O)cc3)NC(=O)[C@H](CN)NC(=O)CSC[C@@H](C(=O)N[C@@H](CCN)C(=O)NCCOCCOCC(N)=O)NC(=O)[C@H](COCc3cn(CCOCCOCCOCCOCCOCCOCCOCCOCCOCCOCCOCCNC(=O)CC[C@H](NC(=O)CCCCCCCCCCCCCCCCC(=O)O)C(=O)O)nn3)NC(=O)[C@H](C(C)C)NC(=O)[C@H](CC3CCCCC3)NC(=O)[C@H](CCN)NC(=O)[C@@H](CC(C)C)NC(=O)[C@H](CCCN)NC(=O)[C@H](Cc3ccc(OCC(=O)O)cc3)NC(=O)[C@H](Cc3ccc(-c4ccccc4)cc3)NC(=O)[C@H](Cc3ccc(OCC(=O)O)cc3)NC2=O)c1 [Compound 1041] ({CH2CO}-[Dap]Y(Carboxymethyl)D[Phe(3-Me)]Y(Carboxymethyl)[Bip]Y(Carboxymethyl)[Orn][dL][Dab][Cha]VS(X1)C[Dab][AEEA]-NH2; thioether N-14),140
8,CC[C@@H]1NC(=O)CSC[C@@H](C(=O)N[C@@H](CCN)C(N)=O)NC(=O)[C@H](CCC(=O)O)NC(=O)[C@H](C(C)C)NC(=O)[C@H](CC2CCCCC2)NC(=O)[C@H](CCN)NC(=O)[C@@H](CC(C)C)NC(=O)[C@H](CCCN)NC(=O)[C@H](Cc2ccc(C(=O)O)cc2)NC(=O)[C@H](Cc2ccc(-c3ccccc3)cc2)NC(=O)[C@H](Cc2ccc(OCc3cn(CCOCCOCCOCCOCCOCCOCCOCCOCCOCCOCCOCCNC(=O)CC[C@H](NC(=O)CCCCCCCCCCCCCCCCC(=O)O)C(=O)O)nn3)cc2)NC(=O)[C@H](Cc2cccc(C)c2)NC(=O)[C@H](CC(=O)O)NC(=O)[C@H](Cc2ccc(C(=O)O)cc2)NC1=O [Compound 1021] ({CH2CO}-[Abu][Phe(4-COOH)]D[Phe(3-Me)]Y(X1)[Bip][Phe(4-COOH)][Orn][dL][Dab][Cha]VEC[Dab]-NH2; thioether N-14),95
